Test results from patent publication US6069156A, “Indole derivatives as cGMP-PDE inhibitors” (Fujisawa Pharmaceutical Co., Ltd., priority 1995, dated 2000).

Tests used:
cGMP-PDE = target: T1, cGMP-PDE (Homo sapiens, UniProt O76074); experiment: cGMP-phosphodiesterase (PDE) Assay (human platelets); assay type: biochemical
T1 construct: cGMP-PDE was separated from other isozymes in human platelets; from tissue; host or cells: human platelets
Description: cGMP-phosphodiesterase (PDE) Assay
cGMP-PDE was separated from other isozymes in human platelets by a modification of the method of Thompson et. al. (Cyclic Nucleotide Phosphodiesterase (PDE), in Methods of Enzymatic analysis, Vol 4, p127-234, 1984). In enzyme inhibition assays, the test compounds were dissolved in 10% DMSO and then diluted with assay buffer (50 mM Tris-HCl, pH 8.0, 0.1 mM dithiothreitol, 2 mM EGTA and 10 u/ml snake venom), at final concentrations ranging from 10^-10 to 10^-6 M. Assays were performed at 0.1 μM substrate ([^3 H]-cGMP) concentration, at 30° C. for 10 minutes using enzyme dilutions which gave 10-20% hydrolysis of substrate. Each assay was initiated by addition of substrate and terminated by addition of anion exchange resin (Dowex 1-X8, 25 μg/mg) followed by centrifugation for 10 minutes (3000 rpm, at 4° C.). Radioactivity of supernatant (^3 H-GMP) was assayed by liquid scintillation counting.

FK506 nephritis = experiment: FK506 Nephritis Model (a); assay type: in vivo, Spontaneously hypertensive rats; conditions: orally twice a day for two weeks; FK506 18 mg/kg daily for 1 week
Description: (a) Spontaneously hypertensive rats weighing 250-300 g were used. FK506 dissolved in olive-oil containing 5% ethanol was given orally to the animals in a daily dose 18 mg/kg for 1 week. After the last dosing of FK506, 24-hours urine was collected for urinalysis. Blood was withdrawn from the abdominal aorta under ether anesthesia 24 hours after the last dosing of FK506, and plasma was separated by centrifugation for biochemical analysis.
The each test compound was dissolved in PEG 400 and given orally by the volume of 1 ml/kg twice a day for two weeks.
Biochemistry and urinalysis: Urine volume, plasma creatinine, urine creatinine, blood urea nitrogen, plasma sodium, urine sodium, plasma potassium and urine potassium, were measured with an autoanalyzer (TBA-20R Toshiba, OM-6020 Daiichi Kagaku).

[1] = test system: streptozotocin-induced diabetes mellitus; experiment: Diabetic Glomerulosclerosis Model (streptozotocin); assay type: in vivo, Male SD rats
Description: Diabetic Glomerulosclerosis Model
6 weeks old Male SD rats were treated with streptozotocin (60 mg/kg i.v.) to induce diabetes mellitus. One week after streptozotocin treatment, test compound, 3.2, 10 mg/kg was started to be orally administered twice a day for 16 weeks.

corpora cavernosa [2] = experiment: Effect on Nitroprusside or Ach-induced Relaxation in Isolated Rat Corpora Cavernosa; set-up: species or system Male SD rats; conditions: compound at 10^-7 M
Description: (a) Effect of Test Compound on Nitroprusside or Ach-induced Relaxation in Isolated Rat Corpora Cavernosa
Male SD rats were anesthetized with sodium pentobarbital 50 mg/kg intraperitoneally, and the corpora cavernosa was excised. The tunica albuginea was dissected according to the methods described by Italiano et al. (Pharmacological Research, 30, No.4, 1994) and used for in vitro pharmacological study. The erectile tissue strip was placed in a 25 ml organ bath containing Krebs-Ringer solution. The bath was maintained at 37° C. and bubbled with 95% O2 and 5% CO2. The strip was stretched with a resting force of 0.25 g, and isometric contraction were recorded via force development transducer on a recorder.
The strip was equilibrated in the Krebs-Ringer solution for about 60 minutes, and preconstructed by 0.1 mM norepinephrine to ascertain the responsibility of each preparation. The strip was washed several times, and then constricted by 0.1 mM norepinephrine. After getting stable constrictile response to norepinephrine, the first dose-response curve for sodium nitroprusside or Ach was obtained. After washing a few times for 60 minutes, the strip was constricted by norepinephrine again, and the second dose-response curve for sodium nitroprusside or Ach was obtained. The test compound was added 30 minutes before adding norepinephrine.

corpora cavernosa [3] = experiment: Effect on the Relaxation Elicited by Electrical Field Stimulation in rat Corpora Cavernosa; conditions: compound at 10^-7 M
Description: (b) Effect of Test Compound on the Relaxation Elicited by Electrical Field Stimulation in rat Corpora Cavernosa.
The rat erectile tissue strip prepared according to the method described by Italiano et al. (Pharmacological Research, 30, No4, 1994) was placed 25 ml organ bath containing Krebs-Ringer solution. The bath was maintained at 37° C. and bubbled with 95% O2 and 5% CO2. The solution also contained atropine (1 μM) and guanethidine (50 μM). The erectile tissue strip was stretched with a resting force of 0.25 g, and isometric contraction were recorded via force development transducer on a recorder. The bipolar platinum electrode connected to the electric stimulator was placed around the strip.
The strip was equilibrated in the Krebs-Ringer solution for about 60 minutes and preconstructed by 0.1 mM norepinephrine to ascertain the responsibility of each preparation. The strip was washed several times, and then constricted by 0.1 mM norepinephrine. After getting stable contractile response to norepinephrine, the first electrical field stimulation (1 to 45 Hz, 20V, 0.5 msec duration, 90 sec interval) was delivered. 30 minutes after adding the tested compound, the second electrical field stimulation was delivered.

[4] = test system: blood flow of corpus spongiosum penis and corpus cavernosum penis; experiment: Impotence Model (c): penile blood flow in anesthetized beagle; assay type: in vivo, Male beagle
Description: (c) Male beagle weighing 8.0-12.0 kg were anesthetized with pentobarbital sodium (35 mg/kg, i.v.). After tracheotomy, the animal was artificially ventilated using a volume-cycled ventilator. The femoral artery was cannulated for continuous blood pressure and heart rate monitoring. The femoral vein was cannulated for maintenance of anesthesia and administration of tested compound. Two laser-dopper probes were placed in the corpus spongiosum penis and corpus cavernosum penis for recording blood flow. After a period of stabilization of all parameters, tested compound was injected intravenously at a various concentration. […] The increase in blood flow reached a peak value of 55% of baseline and continued for longer than 15 minutes after the administration of said compound 1.0 mg/kg.

[5] = Toxicity by repetitive oral administration; assay type: in vivo, SD rat; conditions: 32 mg/kg once a day orally, 14 consecutive days
[6] = 10 mg/kg orally twice a day for 16 weeks
[7] = 3.2, 10 mg/kg orally twice a day for 16 weeks

CCCc1c(C(=O)C(C)C)c2ccc(C(N)=O)cc2n1Cc1ccccc1Cl [Example 6, 1-(2-chlorobenzyl)-3-isobutyryl-2-propylindole-6-carboxamide]
IC50 (cGMP-PDE): < 100 nM | recovery in a measure of creatinine clearance (ml/kg/min) (FK506 nephritis): more than 45% | recovery in urinary sodium excretion (FK506 nephritis): more than 50% | 4-hydroxyproline contents in renal cortex [1, 6]: perfectly inhibited the increased 4-hydroxyproline contents in renal cortex | reduction on average of the elimination of protein in urine [1, 6]: 37% | valiance of RR intervals in cardioelectrography [1, 6]: perfectly recovered the reduced valiance of RR intervals | blood flow in ears [1, 7]: improved the decreased blood flow in ears | onset of diabetic cataract [1, 7]: retarded the onset of diabetic cataract | parameters reflecting the abnormalities of peripheral circulation [1, 7]: improved the parameters reflecting the abnormalities of peripheral circulation | skin temperature on foot pad [1, 7]: raised the decreased skin temperature on foot pad | Ach-induced relaxation of corpora cavernosa (corpora cavernosa [2]): potentiated Ach-induced relaxation of corpora cavernosa | nitroprusside-induced relaxation of corpora cavernosa (corpora cavernosa [2]): potentiated nitroprusside-induced relaxation of corpora cavernosa | 100 μM Ach-induced relaxant response (corpora cavernosa [2]; contraction by 10^-4 M norepinephrine, control 11.0%): 18.7% | relaxation of corpora cavernosa elicited by electrical field stimulation (corpora cavernosa [3]): potentiated relaxation of corpora cavernosa elicited by electrical field stimulation | Relaxant response elicited by 30 Hz (corpora cavernosa [3]; control 14.3%): 17.1% | duration of increase in blood flow ([4]; 1.0 mg/kg intravenous): > 15 min | peak value of increase in blood flow (of baseline) ([4]; 1.0 mg/kg intravenous): 55% | blood flow of corpus spongiosum penis and corpus cavernosum penis ([4]; intravenous): increased in the blood flow of both corpus spongiosum penis and corpus cavernosum penis | hemodynamic change ([4]; intravenous): without hemodynamic change | death on repetitive oral administration [5]: the dead at dose of 32 mg/kg once a day for 14 consecutive days could not be observed
